According to patent US9340577B2, “HLA binding motifs and peptides and their uses” (priority 1992, dated 2016):
No end group written: not given here.

Columns and labels:
Experiment in all cases: biochemical
Type in all cases: binding
[1] = target: A31 (A*3101) (Homo sapiens, UniProt P04439, A270S/D185E/E176V/E277Q/F33T/G231S/G80R/H175R/I121M/I218V/I322F/K168Q/L300P/L318F/M331R/P217A/Q94H/R138Q/T323A/T345S/T97I/V358M)
[2] = target: HLA-A11 (A*1101) (Homo sapiens, UniProt P04439, A114D/D185E/E176A/F33Y/L180Q/S129P/T187R)
[3] = target: HLA-A3.2 (A*0301) (Homo sapiens, UniProt P04439)
[4] = target: A*3301 (Homo sapiens, UniProt P04439, A270S/D185E/E176V/E277Q/E87N/F33T/G231S/H175R/I121M/I218V/I322F/K168Q/K210R/L300P/L318F/M331R/P217A/Q86R/Q94H/R138Q/T323A/T345S/T97I/V358M/Y195H)
[5] = target: A*6801 (Homo sapiens, UniProt P04439, A269V/D185E/E176V/E277Q/E87N/F33Y/G231S/I121M/I166T/I218V/L180W/L300P/L318F/N151K/P208A/P217A/Q86R/R169H/T345S)

| Compound | IC50 [1] [µM] | IC50 [2] [µM] | IC50 [3] [µM] | IC50 [4] [µM] | IC50 [5] [µM] |
| --- | --- | --- | --- | --- | --- |
| STAAALYWYR [Peptide 1587.32] | 0.0024 | 0.004 | 0.089 | 0.028 | 0.0041 |
| HLFDYSWYK [Peptide 76.0165] | 0.036 | 0.00099 | 0.0041 | 0.061 | 0.0021 |
| EFTAFLDAFK [Peptide 88.0179] | 16.5 | 0.968 | 5.79 | 0.014 | 0.127 |
| HLFRYSWYK [Peptide 76.0171] | 0.062 | 0.016 | 0.021 | 0.083 | 0.027 |
| TFWNPPTTAR [Peptide 1556.02] | 0.057 | 1.5 | 18.1 | 0.04 | 0.029 |
| VTIYYGVPVWK [Peptide 1525.03] | 0.534 | 0.0025 | 0.042 | > 20 | 0.028 |
| FLSALKLFLK [Peptide 1587.38] | 0.984 | 0.165 | 0.715 | 2.59 | 1.56 |
| EFTAFLGAFK [Peptide 88.0167] | > 20 | 0.293 | 4.67 | 0.035 | 0.197 |
| LVYRDDFPY [Peptide 1581.04] | > 20 | 0.058 | 7.38 | > 20 | 11.3 |
| HLFWYSWYK [Peptide 76.0168] | 0.028 | 0.0053 | 0.0064 | 0.039 | 0.0034 |
| RQMSMGQWIK [Peptide 1587.35] | 0.048 | 0.006 | 0.053 | > 20 | 2.23 |
| ATTPIIHLK [Peptide 1589.18] | 0.049 | 0.0076 | 0.0097 | 11.2 | 0.0067 |
| SFFSRTWSR [Peptide 1587.16] | 0.00029 | 0.026 | 1.14 | 0.00059 | 0.0036 |
| HLFTYSWYK [Peptide 76.0164] | 0.035 | 0.0077 | 0.0049 | 0.137 | 0.019 |
| ALFTAQEAK [Peptide 88.0323] | 2.66 | 0.013 | 0.028 | 16.1 | 0.603 |
| KLFLKGVPK [Peptide 1587.41] | 0.0015 | 0.017 | 0.016 | 9.68 | > 20 |
| LTTNIHPAK [Peptide 88.0347] | 0.231 | 0.018 | 0.044 | 0.575 | 0.016 |
| AFRDLCIVYR [Peptide 78.0079] | 0.013 | 4.38 | 3.11 | 0.041 | 0.6 |
| LLLIRFKCSK [Peptide 88.0191] | 0.749 | 3.52 | 0.284 | 17.4 | 0.879 |
| MQYVAWKYIY [Peptide 88.0233] | > 20 | 0.052 | 1.89 | > 20 | 12.1 |
| LQLALEALNK [Peptide 88.0227] | 3.63 | 0.021 | 1.1 | > 20 | > 20 |
| WTYFDTYMR [Peptide 88.0346] | 0.332 | 0.293 | > 20 | 0.095 | 0.0038 |
| RLECVLMYK [Peptide 1589.12] | 0.044 | 0.021 | 0.0087 | 0.828 | 3.63 |
| VVLLLVRYK [Peptide 1587.05] | 0.0012 | 0.021 | 0.013 | 0.021 | 0.54 |
| KLVEDRWNK [Peptide 9017.0107] | 0.061 | 0.102 | 0.265 | > 20 | 18 |
| GLYYWCDGEK [Peptide 88.0229] | 5.1 | 0.024 | 0.107 | > 20 | 10 |
| STCMGGMNR [Peptide 1556.61] | 0.157 | 1.1 | 0.281 | 17.9 | 1.63 |

| Compound | IC50 [1] [µM] | IC50 [2] [µM] | IC50 [3] [µM] | IC50 [4] [µM] | IC50 [5] [µM] |
| --- | --- | --- | --- | --- | --- |
| GTMCRHYKR [Peptide 1587.34] | 0.02 | 0.031 | 0.611 | 0.226 | 0.056 |
| FTDLRIVYR [Peptide 1550.08] | 0.065 | 10.5 | 2.94 | 0.0097 | 0.158 |
| GVSIEWRKRR [Peptide 9017.0221] | 0.226 | 6.32 | > 20 | 1.68 | 8.81 |
| MTDAGTWDK [Peptide 88.0400] | > 20 | 0.012 | 1.58 | > 20 | 0.028 |
| DLPSQIEHWK [Peptide 88.0212] | > 20 | > 20 | > 20 | > 20 | 0.025 |
| STWHWTGCNK [Peptide 1589.28] | 0.16 | 0.015 | 0.072 | 1.9 | 0.032 |
| HLFGYSYYK [Peptide 76.0191] | 1.8 | 0.0027 | 0.011 | 3.47 | 0.014 |
| KLCLRFLSK [Peptide 1571.20] | 0.271 | 0.279 | 0.018 | > 20 | > 20 |
| EVLMWKFDSR [Peptide 9017.0192] | 0.436 | 7.63 | > 20 | 0.062 | 0.0028 |
| SQIEHWKLIR [Peptide 88.0213] | 0.515 | 0.086 | 16.6 | > 20 | 1.33 |
| MALESILRK [Peptide 9012.0214] | > 20 | 0.013 | 0.216 | 5.48 | 0.433 |
| TLWNPPTTAK [Peptide 1556.04] | 6.83 | 0.107 | 0.022 | 2.24 | 0.438 |
| SVRKLTEDR [Peptide 9017.0106] | 0.048 | 7.64 | 16.8 | 0.646 | 0.226 |
| MTYVAWDSVY [Peptide 1589.07] | 19.4 | 0.892 | 0.616 | > 20 | 0.073 |
| CFFTRTWSR [Peptide 88.0382] | 0.0043 | 1.49 | 13.5 | 0.003 | 0.052 |
| CSCC[C@H](NC(=O)[C@@H](N)CCCCN)C(=O)N[C@@H](Cc1ccccc1)C(=O)N[C@@H](CS)C(=O)N[C@@H](CCC(N)=O)C(=O)N[C@@H](CC(C)C)C(=O)N[C@@H](C)C(=O)N[C@@H](CCCCN)C(=O)O [Peptide 1556.52] | 0.41 | 0.022 | 0.037 | > 20 | 1.28 |
| LLYGAANTGK [Peptide 1587.12] | 6.72 | 0.016 | 0.0033 | > 20 | 0.076 |
| KISEYRHYCY [Peptide 78.0082] | 4.85 | 0.163 | 0.152 | 2.35 | 2 |
| ALTALIKPKK [Peptide 9017.0229] | 0.901 | 0.43 | 0.529 | > 20 | 2.1 |
| TVSATQLVK [Peptide 1589.08] | 14.6 | 0.0044 | 0.0065 | > 20 | 0.031 |
| GLGISYGRK [Peptide 1577.25] | > 20 | 2.15 | 0.064 | > 20 | > 20 |
| KTTVLFKFK [Peptide 88.0369] | 0.036 | 0.02 | 0.031 | 1.4 | 0.874 |
| TVHVYFDGNK [Peptide 1589.24] | > 20 | 0.061 | 0.707 | > 20 | 0.097 |
| KFYSKISEYR [Peptide 78.0081] | 0.048 | 18 | 1.68 | 0.079 | 0.264 |
| SIVGWPAVR [Peptide 9017.0058] | 0.079 | 0.632 | 1.09 | 0.469 | 0.021 |
| GTFKCSAGK [Peptide 88.0373] | 0.617 | 0.014 | 0.023 | 18.2 | 0.081 |
| VTVQYDNDKK [Peptide 88.0216] | > 20 | 0.1 | 18.2 | > 20 | 1.15 |
